Measurements taken from US20250186600A1, “EXCIPIENT COMPOUNDS FOR PROTEIN FORMULATIONS” (Comera Life Sciences, Inc., priority 2020, published 2025).
Counter-ions that a name gives are not always drawn. One block for each compound: values may come before it. Residues, ends and D or L forms follow the SMILES beside them.

What was measured:
[1] = test system: omalizumab; assay: Viscosity of omalizumab solution by DLS of gold nanoparticles (Example 62); settings: omalizumab approximately 200 mg/mL, excipient 0.1M or lower, His HCl pH 6.0, 25° C.
[2] = test system: omalizumab; assay: Diffusion interaction parameter kD of omalizumab by DLS (Example 62); settings: omalizumab 10 to 0.6 mg/mL, 0.1M excipient, His HCl pH 6.0, 25° C.
[3] = test system: ustekinumab; assay: Urea denaturation, Sypro orange fluorescence (Example 44); assay type: physicochemical; settings: excipient 5 mg/mL, ustekinumab 1 mg/mL, 6M urea, 20 mM histidine pH 6.0, Sypro orange fluorescence
From the text: It is known that urea denatures proteins in solution and causes them to unfold. The screening methodology in this example involved adding a specific concentration of urea to a therapeutic protein solution such as ustekinumab. […] One method to track protein unfolding involves the use of extrinsic fluorescent dyes such as Sypro orange. Sypro orange binds to hydrophobic regions in the unfolded protein structure, leading to an increase in the fluorescence signal observed. Measuring the differences in the fluorescence intensity of unfolded protein-Sypro orange complex in presence of different excipients thus allows one to identify any stabilizing effects.
All excipients used in this Example, listed in Table 45 below, were of the highest purity, and were obtained from Sigma Aldrich (St. Louis, MO) or Cayman Chemical (Ann Arbor, MI). […] This urea stock solution was then added to a final concentration of 6M to produce the test solutions (excipient plus protein plus urea). […] The pH of the mixture was rechecked and confirmed to be at pH 6.0. The test solutions were allowed to incubate at room temperature for 30 min.

[4] = test system: ustekinumab; assay: Stabilization at low pH, Sypro orange fluorescence (Example 45); settings: excipient 5 mg/mL, ustekinumab 1 mg/mL, glycine acidification buffer pH 2.6, Sypro orange fluorescence
[5] = test system: omalizumab; assay: DLS viscosity of concentrated omalizumab (Example 54); assay type: physicochemical; settings: concentrated omalizumab 9 parts : 1 part excipient stock (1 M or solubility limit), 20 mM HisHCl pH 6
Protocol: Hordenine HCl was purchased from Bulk Supplements (Henderson, NV).
The concentrated protein formulation was then combined with a stock excipient solution or a control at a ratio of 9 parts protein: 1 part excipient solution or buffer (for the control), and aliquots were added to the wells of a 384 well microplate (Aurora Microplates, Whitefish, MT). […] After the microplate was shaken, 2 microliters of a 5-fold dilution of polyethylene glycol surface-modified gold nanoparticles having a diameter of 100 nm (nanoComposix, San Diego, CA) in 20 mM His HCl were added to each sample well. […] In this example, the ratio of apparent radius to the actual radius of the gold nanoparticle was multiplied by the viscosity of water at 25° C. to calculate the viscosity of the protein formulation in centipoise (cP).

Viscosity normalized to control ([1]; Table 62A series): 0.98
kD ([2]; Table 62A series): -30.9 mL/g
Compound: CN1CCN(C)C1=O [1,3-Dimethyl-2-imidazolidinone]

% increased stability [3]: 9.0%
Compound: O=C(O)CCCc1ccccc1 [4-phenylbutyric acid]

Viscosity normalized to control ([1]; Table 62A series): 0.93
kD ([2]; Table 62A series): -31.9 mL/g
Compound: O=C(O)c1cccc(O)n1 [6-hydroxypyridine-2-carboxylic acid]

Viscosity normalized to control ([1]; Table 62A series): 0.71
Compound: COC(=O)[C@H](Cc1ccccc1)NC(=O)[C@@H](N)CC(=O)O [Aspartame] (H-Asp-Phe-OMe)

% change in stability [4]: 1.8%
Compound: OC[C@@H](O)[C@@H](O)CO [Erythritol]

DLS Viscosity, Replicate 1 [5]: 26.0 cP
Compound: CCCCc1ncc[nH]1 [Excipient 2-butylimidazole, 2-butylimidazole]

% change in stability [4]: 9.4%
Compound: OC[C@H]1OC(O)[C@@H](O)[C@@H](O)[C@@H]1O (stereo partly drawn) [Mannose]

DLS Viscosity, Replicate 1 [5]: 60.1 cP
DLS Viscosity, Replicate 2 [5]: 33.9 cP
Compound: CN[C@@H]1[C@H](O)[C@H](NC)[C@H]2O[C@@]3(O)C(=O)C[C@@H](C)O[C@H]3O[C@@H]2[C@H]1O [Spectinomycin]

Viscosity normalized to control ([1]; Table 62A series): 0.73
kD ([2]; Table 62A series): -33.9 mL/g
Compound: O=C(O)/C=C/c1ccc(O)c(O)c1 [caffeic acid]

Viscosity normalized to control ([1]; Table 62B series): 0.73
kD ([2]; Table 62B series): -18.5 mL/g
Compound: NCCS [cysteamine HCl]

Viscosity normalized to control ([1]; Table 62B series): 1.10
kD ([2]; Table 62B series): -31.2 mL/g
Compound: OCCN(CCO)c1nc(N2CCCCC2)c2nc(N(CCO)CCO)nc(N3CCCCC3)c2n1 [dipyridamole]

Viscosity normalized to control ([1]; Table 62B series): 0.51
kD ([2]; Table 62B series): -22.4 mL/g
Compound: NCCO [ethanolamine HCl]

% increased stability [3]: 4.4%
Compound: O=C(O)c1ccncc1 [isonicotinic acid]

Viscosity normalized to control ([1]; Table 62B series): 0.22
kD ([2]; Table 62B series): -13.1 mL/g
Compound: NCc1cccc(CN)c1 [m-xylylenediamine]

Viscosity normalized to control ([1]; Table 62B series): 0.83
kD ([2]; Table 62B series): -31.4 mL/g
Compound: NC(=O)c1ccc[n+]([C@@H]2O[C@H](COP(=O)([O-])O)[C@@H](O)[C@H]2O)c1 [nicotinamide mononucleotide]

Viscosity normalized to control ([1]; Table 62B series): 0.31
kD ([2]; Table 62B series): -13.7 mL/g
Compound: NCCCCNCCCN [spermidine]

More lines, now with the values behind:

Compound: NC(C(=O)O)C(O)c1ccccc1 (racemic) [DL-3-phenylserine]
Viscosity normalized to control ([1]; Table 62B series): 1.04
kD ([2]; Table 62B series): -30.7 mL/g

Compound: NCCCN [1,3-Diaminopropane]
Viscosity normalized to control ([1]; Table 62A series): 0.49
kD ([2]; Table 62A series): -11.3 mL/g

Compound: NCCCN [1,3-diaminopropane]
Viscosity normalized to control ([1]; Table 62B series): 0.22
kD ([2]; Table 62B series): -11.4 mL/g

Compound: O=S(=O)(O)c1cccc2c(S(=O)(=O)O)cccc12 [1,5-naphthalenedisulfonic acid]
Viscosity normalized to control ([1]; Table 62A series): 0.83
kD ([2]; Table 62A series): -25.1 mL/g

Compound: Cn1ccnc1 [Excipient 1-methylimidazole, 1-methylimidazole]
DLS Viscosity, Replicate 1 [5]: 53.4 cP
DLS Viscosity, Replicate 2 [5]: 54.8 cP

Compound: CCc1ncc[nH]1 [Excipient 2-ethylimidazole, 2-ethylimidazole]
DLS Viscosity, Replicate 1 [5]: 57.5 cP
DLS Viscosity, Replicate 2 [5]: 71.8 cP

Compound: Cc1ncc[nH]1 [Excipient 2-methylimidazole, 2-methylimidazole]
DLS Viscosity, Replicate 1 [5]: 65.6 cP
DLS Viscosity, Replicate 2 [5]: 81.3 cP

Compound: Nc1ccncc1 [Excipient 4-aminopyridine, 4-aminopyridine]
Viscosity normalized to control ([1]; Table 62B series): 0.59
kD ([2]; Table 62B series): -22.5 mL/g

Compound: CN(C)CCc1ccc(O)cc1 [Hordenine HCl]
DLS Viscosity, Replicate 1 [5]: 36.9 cP
DLS Viscosity, Replicate 2 [5]: 22.8 cP

Compound: OC[C@@H](O)[C@@H](O[C@@H]1O[C@H](CO)[C@H](O)[C@H](O)[C@H]1O)[C@H](O)[C@@H](O)CO [Lactitol]
% change in stability [4]: 0.6%

Compound: CC[N+](CC)(CC)CC.Cl [Tetraethylammonium HCl]
DLS Viscosity, Replicate 1 [5]: 73.7 cP
DLS Viscosity, Replicate 2 [5]: 58.3 cP

Compound: NCC(=O)NCC(=O)NCC(=O)NCC(=O)O [Tetraglycine] (H-GGGG-OH)
DLS Viscosity, Replicate 1 [5]: 89.7 cP
DLS Viscosity, Replicate 2 [5]: 72.2 cP

Compound: NCCc1c[nH]c2ccccc12 [Tryptamine]
% increased stability [3]: 11.6%

Compound: NC(=NO)c1ccccc1 [benzamide oxime]
% increased stability [3]: 1.4%

Compound: Nc1nc(=O)c2c([nH]1)NCC(CNc1ccc(C(=O)N[C@@H](CCC(=O)[O-])C(=O)[O-])cc1)N2C=O.[Ca+2] (stereo partly drawn) [folinic acid calcium salt]
Viscosity normalized to control ([1]; Table 62B series): 0.93
kD ([2]; Table 62B series): -34.9 mL/g

Compound: NCCCC[C@H](N)C(=O)O [lysine]
Viscosity normalized to control ([1]; Table 62B series): 0.46
kD ([2]; Table 62B series): -10.1 mL/g

Compound: O=C(O)c1cccnc1 [nicotinic acid]
Viscosity normalized to control ([1]; Table 62B series): 0.55
kD ([2]; Table 62B series): -24.5 mL/g

Compound: Nc1ccc(C(=O)O)cc1 [p-aminobenzoic acid]
% increased stability [3]: 2.7%

Compound: O=C(O)[C@]1(O)C[C@@H](O)[C@@H](O)[C@H](O)C1 [quinic acid]
Viscosity normalized to control ([1]; Table 62B series): 0.67
kD ([2]; Table 62B series): -24.2 mL/g

Compound: CNCC(=O)O [sarcosine]
Viscosity normalized to control ([1]; Table 62B series): 1.33
kD ([2]; Table 62B series): -29.9 mL/g

Compound: Pyridyl ethylamine
% change in stability [4]: 85.6%
